# In ChEMBL document CHEMBL3044589, “Effects of propylene oxide doses on Cyperus and Belonolaimus control and nutrient absorption in tomato” (2007):
# Active and inactive are the calls of the source. No cut-off for these calls is given here.
# Columns and labels:
# Solanum lycopersicum [1] = assay: Increase in Solanum lycopersicum (tomato) plant yield at 760 l/ha applied 12 days prior to transplantation measured after 12 to 14 weeks relative to untreated-control; assay type: functional
# Solanum lycopersicum [2] = assay: Increase in Solanum lycopersicum (tomato) plant yield at […] applied 12 days prior to transplantation measured after 12 to 14 weeks relative to untreated-control; assay type: functional
# Solanum lycopersicum [3] = assay: Increase in Solanum lycopersicum (tomato) plant yield at 190 to 950 l/ha applied 12 days prior to transplantation measured after 12 to 14 weeks; assay type: functional, organism-based
# Solanum lycopersicum [4] = assay: Increase in Solanum lycopersicum (tomato) plant vigor at 190 to 950 l/ha applied 12 days prior to transplantation measured after 10 weeks; assay type: functional, organism-based
# Solanum lycopersicum [5] = assay: Increase in Solanum lycopersicum (tomato) foliar potassium concentration at 190 to 950 l/ha applied 12 days prior to transplantation measured after 4 weeks (reference value: 2.38%); assay type: functional
# Solanum lycopersicum [6] = assay: Increase in Solanum lycopersicum (tomato) foliar phosphorus concentration at 190 to 950 l/ha applied 12 days prior to transplantation measured after 4 weeks (reference value: 0.31%); assay type: functional
# Belonolaimus = assay: Nematocidal activity against Belonolaimus at 190 to 950 l/ha applied 12 days prior to tomato transplantation measured after 14 weeks; assay type: functional, organism-based
# Cyperus [7] = assay: Herbicidal activity against Cyperus at 850 l/ha applied 12 days prior to tomato transplantation measured after 14 weeks relative to control; assay type: functional
# Cyperus [8] = assay: Herbicidal activity against Cyperus at 775 l/ha applied 12 days prior to tomato transplantation measured after 8 weeks relative to control; assay type: functional
# Cyperus [9] = assay: Herbicidal activity against Cyperus at 190 l/ha applied 12 days prior to tomato transplantation measured after 4 weeks relative to control; assay type: functional
# Cyperus [10] = assay: Herbicidal activity against Cyperus at 190 to 950 l/ha applied 12 days prior to tomato transplantation measured after 4 to 14 weeks relative to control; assay type: functional, organism-based
compound,measurement,setting,value
CC1CO1 (stereo unspecified) [PROPYLENE OXIDE],fold change (FC),Solanum lycopersicum [1],4.1
same,fold change (FC),Solanum lycopersicum [2],3.5
same,Activity,Solanum lycopersicum [3],Active
same,Activity,Solanum lycopersicum [4],Active
same,Activity,Solanum lycopersicum [5],3.25%
same,Activity,Solanum lycopersicum [6],0.51%
same,Activity,Belonolaimus,Active
same,Activity,Cyperus [7],80%
same,Activity,Cyperus [8],80%
same,Activity,Cyperus [9],80%
same,Activity,Cyperus [10],Active
